# Measured values taken from US10159265B2, “Feed composition for reducing ruminant methanogenesis” (priority 2012, dated 2018).
# Marks after values point to notes of the source that are not given here.
# Tests used:
# [1] = test system: "in vitro" ruminal fluid cultures; experiment: Volatile fatty acid concentration and molar proportions in "in vitro" ruminal fluid cultures; assay type: cell-based, calves
# Excerpt: (§1) Two trials following an identical experimental protocol were designed to study the effect of different pure flavonoids on rumen fermentation using a simulatory “in vitro” system based on the experimental protocol described by Theodorou M K et al. (1994) Animal Feed Science and Technology, 48 (3), p. 185-197; Mauricio, R. M., et al. (1999) Animal Feed Science and Technology 79, 321-330.
# (§2) Rumen cannulated calves which received a mixed ration mainly composed of concentrate (90:10) were used as rumen fluid donor; feed composition is presented in Table 1. The inoculum was collected and filtered through two-layer surgical gauze and kept in thermo pots. Flavonoids (Table 2) plus 600 mg of concentrate (Table 1) and 60 mg of barley straw as the substrate were dosed by triplicate in preheated bottles (39° C.) and maintained under anaerobic conditions. Flavonoids isonaringin, neoeritrocin, poncirin were purchased from INDOFINE Chemical Company, Inc (USA). 10 ml of rumen fluid and 40 ml of incubation medium were added to the bottles (McDougall, El (1948) Studies on ruminant saliva. 1. The composition and output of sheep's saliva. Biochem J. 43(1) 99-109). Once the bottles were filled and the anaerobic condition was applied, the bottles were sealed and the incubation process was started in a hot water bath. Pressure readings were made at 2, 4, 6, 8, 12, 24, 36 and 48 hours. Each sample was incubated in triplicate in two sets or batches.
# […] P., 1982 Science des Aliments 2, 131-144), lactate (Taylor, K. A. C. C., 1996. Appl. Biochem. Biotechnol. Enzym. Eng. Biotechnol. 56, 49-58) and ammonia (Chaney, A. L., Marbach, E. P., 1962. Clin. Chem. 8, 130-132) analyses.
# [2] = test system: Selenomonas ruminantium; experiment: qPCR relative quantification of Selenomonas ruminantium; assay type: cell-based; details: 12 hours of incubation
# Description: as §2
# (§3) After 12 hours of incubation, one bottle (replicate) from each treatment was opened, pH was recorded and the bottle was sampled for volatile fatty acids (Jouany, J. P., 1982 Science des Aliments 2, 131-144), lactate (Taylor, K. A. C. C., 1996. Appl. Biochem. Biotechnol. Enzym. Eng. Biotechnol. 56, 49-58) and ammonia (Chaney, A. L., Marbach, E. P., 1962. Clin. Chem. 8, 130-132) analyses.
# (§4) The environmental DNA was extracted using the technique proposed by Yu and Morrison (2004). Quantification of Streptococcus bovis, Megasphaera elsdenii and Selenomonas ruminantium DNA was done by qPCR using specific primers (Tajima, K. et al. 2001. Appl. Environ. Microb. 67, 2766-2774; Ouwerkerk, D., et al. 2002. J. Appl. Microbiol. 92, 753-758). Results were statistically analyzed using the PROC MIXED procedure of SAS statistical package (SAS, 2000, User's guide: Statistics, version 8 editions inst., Inc., Cary, N.C.). The least significant difference was used to compare the means. Differences between means in which P<0.05 were accepted as significant.
# [3] = test system: "in vitro" rumen fluid culture; experiment: Biogas production in "in vitro" rumen fluid culture (pressure meter); assay type: cell-based, calves; parameters: Average biogas production / Cumulative biogas production / Biogas production: unit not given here; details: for Average biogas production: average over doses and incubation times
# Description: as §1
# Gas production was determined from a semi-automatic pressure meter, the relationship between pressure levels and the produced gas volume was previously calculated.
# as §2, with “Pressure readings were made at 2, 4, 6, 8, 12, 24, 36 and 48 hours.” left out
# [4] = test system: Megasphaera elsdenii; experiment: qPCR relative quantification of Megasphaera elsdenii; assay type: cell-based; details: 12 hours of incubation
# Description: as §2, §3, §4
# [5] = test system: "in vitro" ruminal fluid culture; experiment: Lactate concentration in "in vitro" ruminal fluid culture; assay type: cell-based, calves; details: 12 hours of incubation
# Excerpt: as §1, §2, §3
# [6] = test system: "in vitro" ruminal fluid cultures; experiment: Ammonia (N-NH3) concentration in "in vitro" ruminal fluid cultures; assay type: cell-based, calves
# Excerpt: as §1, §2, §3
# [7] = test system: ruminal bacteria; experiment: Bacterial DNA concentration by qPCR; assay type: cell-based, calves; details: 12 hours of incubation
# Description: as §2, §3, §4
# [8] = test system: "in vitro" ruminal fluid cultures; experiment: Ammonia (N-NH3) concentration in "in vitro" ruminal fluid cultures; assay type: cell-based, calves; details: 72 h
# [9] = test system: methanogenic (archea) populations; experiment: Methane production in "in vitro" rumen fluid culture; assay type: cell-based, calves; parameters: Average methane production / Accumulated methane production / Methane production / Cumulative methane production: unit not given here
# Excerpt: as §1
# as §2, with “Pressure readings were made at 2, 4, 6, 8, 12, 24, 36 and 48 hours.” left out
# The effects of flavonoids substances on fermentation activity of certain archea populations which are theoretically responsible for the methane production were analyzed.
# The experimental design allows determining whether the effect of flavonoids on methane reduction was derived from a general reduction in microbial activity and biogas production or contrarily flavonoid affects specifically on methanogenic (archea) populations. The presence of flavonoids in the culture medium reduced methane contribution in the total biogas production (P<0.05) although, again, the aforementioned impact was heterogeneous.
# [10] = test system: Streptococcus bovis; experiment: qPCR relative quantification of Streptococcus bovis; assay type: cell-based; details: 12 hours of incubation
# Description: as §2, §3, §4
# [11] = Exp 1, average over doses and incubation times, listed as neohesperidin
structure (smiles),measurement,setting,value
"COc1ccc([C@@H]2CC(=O)c3c(O)cc(O[C@@H]4O[C@H](CO)[C@@H](O)[C@H](O)[C@H]4O[C@@H]4O[C@@H](C)[C@H](O)[C@@H](O)[C@H]4O)cc3O2)cc1O [Neohesperidin, neohesperidin]","% Acetate, molar ratio",[1]; 0 h,62.51 mol/100 mol
same,"% Butyrate, molar ratio",[1]; 0 h,9.07 mol/100 mol
same,"% Propionate, molar ratio",[1]; 0 h,20.03 mol/100 mol
same,A/P rate (acetate/propionate),[1]; 0 h,3.12
same,VFA concentration,[1]; 0 h (initial constant value),13.78 mmol/L
same,"% Acetate, molar ratio",[1]; 12 h,54.68 mol/100 mol
same,"% Butyrate, molar ratio",[1]; 12 h,9.68 mol/100 mol
same,"% Propionate, molar ratio",[1]; 12 h,30.05 mol/100 mol
same,A/P rate (acetate/propionate),[1]; 12 h,1.82
same,VFA concentration,[1]; 12 h,36.97 mmol/L
same,"% Acetate, molar ratio",[1]; 72 h,55.68 mol/100 mol
same,"% Butyrate, molar ratio",[1]; 72 h,9.96 mol/100 mol
same,"% Propionate, molar ratio",[1]; 72 h,26.91 mol/100 mol
same,A/P rate (acetate/propionate),[1]; 72 h,2.07
same,VFA concentration,[1]; 72 h,53.04 mmol/L
same,"% Acetate, molar ratio, average (μ)",[1]; average over incubation times,57.62 mol/100 mol
same,"% Butyrate, molar ratio, average (μ)",[1]; average over incubation times,9.57 ^a mol/100 mol
same,"% Propionate, molar ratio, average (M)",[1]; average over incubation times,25.66 ^b mol/100 mol
same,"VFA concentration, average (μ)",[1]; average over incubation times,34.60 mmol/L
same,Relative Quantification 2^(ΔΔCt) S. ruminantium,[2],0.53
same,Cumulative biogas production,"[3]; Exp 1, 12 h incubation",175.93
same,Cumulative biogas production,"[3]; Exp 1, 24 h incubation",217.84
same,Cumulative biogas production,"[3]; Exp 1, 48 h incubation",253.99
same,Cumulative biogas production,"[3]; Exp 1, 72 h incubation",275.06
same,Average biogas production,[3]; Exp 1,230.71^e
same,Average biogas production,"[3]; Exp 1, listed as neohesperidin",230.7
same,Biogas production,"[3]; Exp 1, dose 1, 0.2 g/kg DM",238.13
same,Biogas production,"[3]; Exp 1, dose 2, 0.5 g/kg DM",223.28
same,Dosage effect on gas production,"[3]; Exp 1, inclusion levels 200 and 500 mg/kg",more pronounced dosage effect
same,Average biogas production,[3]; Exp 2 (second trial),268.16^c
same,Cumulative biogas production,"[3]; Exp 2, 12 h",215.60
same,Cumulative biogas production,"[3]; Exp 2, 24 h",256.18
same,Cumulative biogas production,"[3]; Exp 2, 48 h",292.28
same,Cumulative biogas production,"[3]; Exp 2, 72 h",308.57
same,Biogas production,"[3]; Exp 2, dose 1, 0.2 g/kg DM",267.1
same,Biogas production,"[3]; Exp 2, dose 2, 0.5 g/kg DM",269.2
same,Relative Quantification 2^(ΔΔCt) M. elsdenii,[4],1.35 ^c
same,Relative Quantification 2^(ΔΔCt) M. elsdenii,[4]; listed as neohesperidin,improved
same,Lactate,[5],45.8 mg/L
same,Lactate,[5]; listed as neohesperidin,tended to moderate the recorded increase
same,N-NH3 concentration,[6]; 0 h (initial constant value),149.99 mg/L
same,N-NH3 concentration,[6]; 12 h,168.38 mg/L
same,"N-NH3 concentration, average (M)",[6]; average over incubation times,219.18 mg/L
same,Bacteria DNA,[7],23.93 ^ab μg/ml
same,Bacteria DNA,[7]; listed as neohesperidin,increase did only reach statistical significance
same,N-NH3 concentration,[8],339.17 mg/L
same,Dosage effect on methane production,"[9]; Exp 1, 200 vs 500 mg/kg DM",more reduced by increasing the dose
same,Accumulated methane production,"[9]; Exp 1, 12 h",18.02
same,Proportion of methane in the produced biogas,"[9]; Exp 1, 12 h",10.21
same,Accumulated methane production,"[9]; Exp 1, 24 h",23.15
same,Proportion of methane in the produced biogas,"[9]; Exp 1, 24 h",12.34
same,Accumulated methane production,"[9]; Exp 1, 48 h",28.84
same,Proportion of methane in the produced biogas,"[9]; Exp 1, 48 h",15.91
same,Accumulated methane production,"[9]; Exp 1, 72 h",32.18
same,Proportion of methane in the produced biogas,"[9]; Exp 1, 72 h",16.20
same,Proportion of methane in the produced biogas,"[9]; Exp 1, average over doses and incubation times",13.66^d
same,Average methane production,[9]; [11],decreased
same,Proportion of methane in the produced biogas,[9]; [11],13.70
same,Methane production,"[9]; Exp 1, dose 1, 0.2 g/kg DM",27.63
same,Proportion of methane in the produced biogas,"[9]; Exp 1, dose 1, 0.2 g/kg DM",13.98
same,Methane production,"[9]; Exp 1, dose 2, 0.5 g/kg DM",23.46
same,Proportion of methane in the produced biogas,"[9]; Exp 1, dose 2, 0.5 g/kg DM",13.35
same,Average methane production,"[9]; Exp 2 (second trial), average over doses and incubation times",30.44^b
same,Cumulative methane production,"[9]; Exp 2, 12 h",22.52
same,Cumulative methane production,"[9]; Exp 2, 24 h",27.98
same,Cumulative methane production,"[9]; Exp 2, 48 h",34.31
same,Cumulative methane production,"[9]; Exp 2, 72 h",36.95
same,Methane production,"[9]; Exp 2, dose 1, 0.2 g/kg DM",30.1
same,Methane production,"[9]; Exp 2, dose 2, 0.5 g/kg DM",30.8
same,Relative Quantification 2^(ΔΔCt) S. bovis,[10],0.25
